According to patent US8933117B2, “Crystals of substituted cycloalkene derivatives” (Daiichi Sankyo Company, Limited, priority 2010, dated 2015):
“Also recorded” adds a separate entry of the source. Read-outs that look alike come from different tables or passages of the source.

Experiments:
[1] = Moisture absorption test (hygroscopicity); type: physicochemical; conditions: 25° C.; for Hygroscopicity (in words): measurement humidity 10 to 95% RH; for Hygroscopicity, change in weight: relative humidity 10→80%
Experimental: A sample was weighed in a glass sample cup, and the weight thereof was measured under the following conditions.
Measuring device: DVS Advantage, manufactured by Surface Measurement System Ltd.
Measurement temperature: 25° C., Minimum exposure time: 15 min, Maximum exposure time: 120 min, Step transition condition: within 0.006 wt. %
The appearance of the sample at the time of completion of the measurement was confirmed.

Solubility test = type: physicochemical; conditions: aqueous phosphate solution with 150 mM NaCl, pH around 7.5
Experimental: 150 mg of each of the compounds of Examples 1 and 2 and Comparative Example 1 was dissolved in 5 mL of an aqueous phosphate solution containing sodium chloride (containing 150 mM NaCl and 10 mM […]). After the resulting mixture was stirred for 30 minutes while measuring the pH of the mixture, a 0.5 mL portion of the resulting suspension was taken and filtered through a syringe filter. A 100 μL portion of the obtained filtrate was transferred into a 10-mL volumetric flask and diluted to 10 mL with an aqueous solution of 50% MeCN, whereby a sample solution was prepared. To the suspension, concentrated HCl was added dropwise to adjust the pH thereof to around 7.5.
Measurement was performed using HPLC under the following conditions.
HPLC system: Water's Alliance
Column: XTerra MS C18 3.5 μm, Column Size: 4.6×100 mm
Column Temp: 40° C., Flow Rate: 1.2 mL/min
Solvent A: 0.1% phosphoric acid in water, Solvent B: 0.1% phosphoric acid in MeCN

Solution stability test = conditions: light tester, versus light-shielded control
Experimental: (§1) The above flasks as such and the flasks covered with aluminum foil for light shielding as controls were placed in a light tester at 25° C. After one day, each solution was diluted to 10 mL with 50% MeCN. The concentration of each solution was calculated by performing HPLC under the same conditions as used in the above-described solubility test, and the change in concentration from the control was calculated.

[2] = test system: TNF-α production in human monocytic cell line U937 stimulated with endotoxin; experiment: Suppressive effect on production of TNF-α in cells stimulated with endotoxin (in vitro); type: cell-based; conditions: concentration of test compound: 100 nM, LPS 30 ng/ml, 4.5 hours
Experimental: The rate of suppression of TNF-α production when human monocytic cell line U937 was stimulated with endotoxin was determined for the compound of the present invention. Specifically, to RPMI-1640 medium containing 10% (volume %) of inactivated newborn bovine serum, 12-O-tetradecanoylphorbol-13-acetate was added to give a final concentration of 30 ng/ml. U937 cells were suspended in the medium and plated into a 96-well culture plate (Sumilon) so that the number of cells per well/volume was 2×10^4/0.1 mL, and the culture plate was then incubated for 3 days at 37° C. in a carbon dioxide incubator with 5% CO2 and 100% humidity. After completion of the incubation, the culture supernatant was removed. […] By using a 384-well half area black plate (Greiner) and an HTRF quantitative determination kit manufactured by Cisbio International, the concentration of TNF-α in the culture supernatant was measured as time-resolved fluorescence by Discovery (Packard). From the measured value in the absence of LPS (X), the measured value in the absence of the compound of the present invention (Y), and the measured value in the presence of the compound of the present invention (Z), the rate of suppression of TNF-α production was obtained according to the following calculation formula [I]. […]

blood TNF-α level = experiment: Suppressive effect on elevation of blood TNF-α level (in vivo); parameters: species or system Sprague Dawley rats; conditions: test compound 0.3 mg/kg, femoral vein, 0.5 hours before LPS; rat plasma 2 hours after LPS
Experimental: The suppressive effect of the compound of the present invention on the elevation of blood TNF-α level was studied. A test for the elevation of blood TNF-α level was performed in accordance with the method of Parant et al. described in Journal of Leukocyte Biology, Vol. 47, page 164 (1990).
In the test, 3 to 4 male Sprague Dawley rats (8 to 9 weeks of age) were used for each group.
At 4 hours before the administration of LPS, muramyl dipeptide dissolved in physiological saline (1 mg/mL) was administered to each rat through the tail vein at a dose of 1 mL/kg. At 0.5 hours before the administration of LPS, the rats were anaesthetized with pentobarbital (40 mg/kg), and the compound of the present invention dissolved in a 5% dimethyl acetamide/95% polyethylene glycol 400 solution was administered to each rat through the right femoral vein at a dose of 1 mL/kg. To the control group, a 5% dimethyl acetamide/95% polyethylene glycol 400 solution was administered at a dose of 1 mL/kg. […] The plasma TNF-α level was determined using a TNF-α quantitative determination kit (BioSource International, Inc.). From the blood TNF-α level in the control group (X) and the blood TNF-α level in the group administered with the compound of the present invention (Y), the rate of suppression of TNF-α production was calculated according to the following calculation formula [II]. […]

[3] = pH 7
Experimental: as §1

Structure (SMILES) | Hygroscopicity (in words) [1] | Hygroscopicity, change in weight [1] | Solubility (PBS pH 7.5) (Solubility test) | Solution stability (25° C., 1 day) (Solution stability test; McIlvaine buffer pH 8) | Rate of suppression of TNF-α production [2] | Rate of suppression of TNF-α production (blood TNF-α level) | Solution stability (25° C., 1 day) (Solution stability test; PBS pH 6) | Solution stability (25° C., 1 day) [3]
CCOC(=O)C1=CC2(CC[C@H]1S(=O)(=O)Nc1ccc(F)cc1Cl)O[C@H](CO)[C@@H](CO)O2 (single isomer, unassigned) [Comparative Example, reference compound] | showed high hygroscopicity at every measurement humidity; also recorded: With hygroscopicity | 2.6% (relative | low solubility | 99.4% |  |  |  | 
CCOC(=O)C1=CC2(CC[C@H]1S(=O)(=O)[N-]c1ccc(F)cc1Cl)O[C@H](CO)[C@@H](CO)O2.[K+] [Example 1, Potassium(2-chloro-4-fluorophenyl){[(2R,3R,8R)-7-(ethoxycarbonyl)-2,3-bis(hydroxymethyl)-1,4-dioxaspiro[4.5]deca-6-en-8-yl]sulfonyl}azanide] | did not show hygroscopicity | <0.1% (relative | 13.8 mg/ml |  | 89% | 96% | 99.9% | 
CCOC(=O)C1=CC2(CC[C@H]1S(=O)(=O)[N-]c1ccc(F)cc1Br)O[C@H](CO)[C@@H](CO)O2.[K+] [Example 2, Potassium(2-bromo-4-fluorophenyl){[(2R,3R,8R)-7-(ethoxycarbonyl)-2,3-bis(hydroxymethyl)-1,4-dioxaspiro[4.5]deca-6-en-8-yl]sulfonyl}azanide] | did not show hygroscopicity | <0.1% (relative | 9.6 mg/ml |  |  | 81% |  | 99.4%
